In brackets after ≈: the same amount, converted by molar mass.
What was measured:
[1] = Binding affinity to FLAG/His-tagged Keap1 (unknown origin)/biotinylated full-length FLAG/His/Tev/Avi-tagged Cul3 (unknown origin) expressed in baculovirus infected Sf9 insect cells measured after 1 hr by TR-FRET assay; parameters: species or system Homo sapiens
Keap1/Nrf2 = Keap1/Nrf2 (Homo sapiens, UniProt Q14145+Q16236); experiment: Binding affinity to FLAG/His-tagged Keap1 (unknown origin)/biotinylated full-length FLAG/His/Tev/Avi-tagged NRF2 (unknown origin) expressed in baculovirus infected Sf9 insect cells measured after 1 hr by TR-FRET assay
Homo sapiens = species on record: Homo sapiens; experiment: Activation of Keap1/Cul3/Nrf2 in NHBE cells assessed as induction of HO-1 gene expression at 10 uM after 24 hrs by RT-PCR analysis relative to SFN; type: cell-based
[2] = Kinetic solubility of the compound at pH 7.4 by CLND method; type: physicochemical; conditions: buffer, read-out: Kinetic_solubility
[3] = Lipophilicity, log D of the compound at pH 7.4 by chromatographic method; type: physicochemical; conditions: buffer

Sequence of Keap1/Nrf2 (Q16236 whole entry): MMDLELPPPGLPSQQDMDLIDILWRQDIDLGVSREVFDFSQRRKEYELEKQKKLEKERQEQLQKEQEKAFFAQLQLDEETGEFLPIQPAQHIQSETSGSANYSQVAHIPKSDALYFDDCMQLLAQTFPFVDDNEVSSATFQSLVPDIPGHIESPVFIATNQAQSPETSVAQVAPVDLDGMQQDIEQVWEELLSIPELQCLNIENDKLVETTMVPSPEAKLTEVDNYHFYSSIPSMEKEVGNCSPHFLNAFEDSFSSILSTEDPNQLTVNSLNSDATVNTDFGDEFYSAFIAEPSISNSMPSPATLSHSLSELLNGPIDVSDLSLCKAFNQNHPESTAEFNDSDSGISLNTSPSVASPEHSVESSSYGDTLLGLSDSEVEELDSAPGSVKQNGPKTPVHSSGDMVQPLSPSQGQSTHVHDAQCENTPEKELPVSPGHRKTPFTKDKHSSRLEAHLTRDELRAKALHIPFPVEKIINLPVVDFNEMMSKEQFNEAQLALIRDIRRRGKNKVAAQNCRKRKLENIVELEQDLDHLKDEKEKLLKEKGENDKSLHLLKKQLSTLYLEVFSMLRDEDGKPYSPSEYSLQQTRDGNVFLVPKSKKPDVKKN
Sequence of Keap1/Nrf2 (Q14145 whole entry): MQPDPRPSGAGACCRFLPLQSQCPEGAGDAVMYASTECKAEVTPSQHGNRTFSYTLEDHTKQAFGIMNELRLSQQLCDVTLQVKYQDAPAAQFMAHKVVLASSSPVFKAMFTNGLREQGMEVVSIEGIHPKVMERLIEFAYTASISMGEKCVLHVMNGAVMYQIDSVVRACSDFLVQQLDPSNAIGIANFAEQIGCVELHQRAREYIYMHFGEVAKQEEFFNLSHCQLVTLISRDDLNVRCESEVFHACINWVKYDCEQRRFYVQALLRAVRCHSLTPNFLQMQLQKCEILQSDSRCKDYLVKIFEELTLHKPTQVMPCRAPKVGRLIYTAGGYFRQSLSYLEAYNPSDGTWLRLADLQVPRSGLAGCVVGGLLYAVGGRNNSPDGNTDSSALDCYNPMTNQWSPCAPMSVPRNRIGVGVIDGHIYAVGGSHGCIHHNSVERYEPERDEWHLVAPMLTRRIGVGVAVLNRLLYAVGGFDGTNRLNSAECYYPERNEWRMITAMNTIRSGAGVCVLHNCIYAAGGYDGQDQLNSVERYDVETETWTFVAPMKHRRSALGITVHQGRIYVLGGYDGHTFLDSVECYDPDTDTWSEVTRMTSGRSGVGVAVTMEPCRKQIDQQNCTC

| SMILES | IC50 (Keap1/Nrf2) [µM] | solubility kinetic [2] [µM] | chromatographic logD [3] | pIC50 [1] | fold change (FC) (Homo sapiens) |
| --- | --- | --- | --- | --- | --- |
| O=S(=O)(CCCCN=C=S)CCN1CCOCC1 | > 100 | 273 (≈ 79.8 µg/mL) | 2.93 | < 4 | 0.22 |
| C[S+]([O-])CCCCCCN=C=S (stereo not drawn) | > 100 | ≥ 324 | 0.9 | – | – |
| COC(=O)C(CS(=O)(=O)CCCCN=C=S)NC(C)=O (stereo not drawn) | > 100 | ≥ 444 | 2.44 | 4.3 | 0.16 |
| CS(=O)(=O)N1CCC(CCN=C=S)C1 (stereo not drawn) | > 100 | 288 (≈ 67.5 µg/mL) | 3.87 | 4.3 | 4.27 |
| C[S+]([O-])CCCCNC(=S)SCc1cccc([N+](=O)[O-])c1 (stereo not drawn) | > 100 | 372 (≈ 129 µg/mL) | 3.81 | < 4 | 0.39 |
| CN(C)C(=O)CCCCN=C=S | > 100 | – | – | 4.2 | 0.71 |
| COC(=O)C(C[S+]([O-])CCCCN=C=S)NC(C)=O (stereo not drawn) | > 100 | 279 (≈ 85.5 µg/mL) | 1.61 | < 4 | 0.11 |
| CSc1c(N(C)CCCC[S+](C)[O-])c(=O)c1=O (stereo not drawn) | – | – | – | – | 0.14 |
| CN(C)C(=O)/C(C#N)=C/CCCCC[S+](C)[O-] (stereo not drawn) | – | – | – | – | 0.33 |
| CN(C)C(=O)/C=C/CCCCCS(C)(=O)=O | – | – | – | – | 0.13 |
| COCCOC(=O)NCCCCN=C=S | > 100 | 1 (≈ 0.232 µg/mL) | – | < 4 | 0.17 |
| CC(C)(C)OC(=O)N1CCC(SC(=S)NCCCCNC(=O)NC2CCCC2)CC1 | > 100 | 53 (≈ 24.3 µg/mL) | 6.1 | 4.4 | 27.3 |
| C[S+]([O-])CCCCCN=C=S (stereo not drawn) | > 100 | ≥ 458 | 3.12 | 4.1 | 0.35 |
| CN1CCC(SC(=S)NCCCC[S+](C)[O-])CC1 (stereo not drawn) | > 100 | ≥ 536 | 0.81 | < 4 | 0.93 |
| CC(=O)N(C)CCS(=O)(=O)CCCCN=C=S | > 100 | ≥ 340 | 2.4 | < 4 | 0.29 |
| S=C=NCCN1CCSCC1 | > 100 | ≥ 367 | 4.93 | < 4 | 0.21 |
| CN(C)CCS(=O)(=O)CCCCN=C=S | > 100 | 376 (≈ 94.1 µg/mL) | 2.84 | 4.4 | 3.25 |
| CC[S+]([O-])C(=O)N(CCCC[S+](C)[O-])Cc1ccccc1 (stereo not drawn) | – | – | – | – | 0.27 |
| CN(C)C(=O)/C(C#N)=C/CCCCCS(C)(=O)=O | – | – | – | – | 0.18 |
| CC(=O)N(C)CC[S+]([O-])CCCCN=C=S (stereo not drawn) | > 100 | ≥ 110 | 1.51 | < 4 | 0.29 |
| CNC(=O)CCCCN=C=S | > 100 | – | – | 4.1 | 0.7 |
| CC(=O)NCCCCN=C=S | > 100 | – | – | 4.2 | 0.54 |
| CN(C)C(=O)/C=C/CCCCC[S+](C)[O-] (stereo not drawn) | – | – | – | – | 0.11 |
| CC(=O)NCCSC(=S)NCCCC[S+](C)[O-] (stereo not drawn) | > 100 | ≥ 531 | 0.58 | – | – |

The next lines start with results.

| IC50 (Keap1/Nrf2) [µM] | solubility kinetic [2] [µM] | chromatographic logD [3] | SMILES | pIC50 [1] | fold change (FC) (Homo sapiens) |
| --- | --- | --- | --- | --- | --- |
| 63.1 | ≥ 473 | 3.27 | O=C(NCCCCN=C=S)c1ccno1 | 4.2 | 2.65 |
| > 100 | ≥ 420 | 4.34 | CCCCNCCSC(=S)NCCCC[S+](C)[O-] (stereo not drawn) | < 4 | 0.08 |
| > 100 | ≥ 358 | 2.86 | O=C(NCCCCN=C=S)c1ccncc1 | 4.4 | 0.93 |
| 20 | ≥ 358 | 2.46 | CN1CCC(SC(=S)NCCCCNC(=O)Nc2ccc3c(c2)OCO3)CC1 | 5.1 | 25.1 |
| 50.1 | ≥ 364 | 4.92 | O=S(=O)(CCCCN=C=S)c1ccccc1 | 4.6 | 4.31 |
| 15.8 | 247 (≈ 65.1 µg/mL) | 4.29 | O=C(NCCCCN=C=S)NCc1ccccc1 | 4.7 | 6.42 |
| 50.1 | ≥ 289 | 2.63 | O=C(NCCCCN=C=S)c1cccnc1 | 4.1 | 1.78 |
| 31.6 | ≥ 331 | 3.85 | O=S(=O)(CCCCN=C=S)c1ccccn1 | 4.3 | 2.24 |
| 50.1 | 281 | 0.49 | Cl.O=C(NCCCCNC(=S)SC1CCNCC1)Nc1ccncc1 | 4.7 | 25.8 |
| 12.6 | – | 2.24 | CN1CCC(SC(=S)NCCCCNC(=O)Nc2ccc3c(c2)OCCO3)CC1 | 5 | 23.6 |
| 15.8 | 131 (≈ 40.3 µg/mL) | 4.04 | O=C(NCCCCN=C=S)Nc1ccc2c(c1)OCCO2 | 4.9 | 0.65 |
| 12.6 | – | – | O=C(NCCCCN=C=S)OCc1ccccc1 | 5.1 | 0.63 |
| 20 | ≥ 418 | 4.59 | O=C(CCCCN=C=S)NCc1ccccc1 | 4.7 | 28 |
| 39.8 | ≥ 385 | 1.83 | CN1CCC(SC(=S)NCCCCNC(=O)OCc2ccccn2)CC1 | 4.6 | 11.4 |
| 6.31 | 42 (≈ 12.3 µg/mL) | 4.25 | O=C(NCCCCN=C=S)Nc1ccc2c(c1)OCO2 | 5 | 10.5 |
| 31.6 | 261 (≈ 70.3 µg/mL) | 5.52 | Cc1ccccc1S(=O)(=O)CCCCN=C=S | 5 | 0.67 |
| 25.1 | 187 (≈ 68.5 µg/mL) | 7.09 | O=S(=O)(/C=C(\CO)CN1CCC(CN=C=S)CC1)c1ccccc1 | 5.6 | 25.3 |

| IC50 (Keap1/Nrf2) [µM] | solubility kinetic [2] [µM] | chromatographic logD [3] | SMILES | pIC50 [1] | fold change (FC) (Homo sapiens) |
| --- | --- | --- | --- | --- | --- |
| 7.94 | – | 1.91 | CN1CCC(SC(=S)NCCCCNC(=O)Nc2ccc3ncsc3c2)CC1 | 5.4 | 25.5 |
| 7.94 | 34 (≈ 16.3 µg/mL) | 6.05 | CC(C)(C)OC(=O)N1CCC(SC(=S)NCCCCNC(=O)NCc2ccccc2)CC1 | 4.7 | 18.6 |
| 5.01 | 73 (≈ 21.8 µg/mL) | 6.35 | O=C(NCCCCN=C=S)OCc1ccccc1Cl | 5.2 | 3.21 |
| 25.1 | 337 (≈ 88.4 µg/mL) | 2.59 | O=C(CCc1ccccc1)NCCCCN=C=S | 4.4 | 9.84 |
| 50.1 | ≥ 436 | 2 | CNC(=O)NCCCCN=C=S | 4.1 | 1.04 |
| 3.98 | 280 (≈ 120 µg/mL) | 4.06 | CN1CCC(SC(=S)NCCCCNC(=O)OCc2ccccc2Cl)CC1 | 5.3 | 6.26 |
| 31.6 | 85 (≈ 39.8 µg/mL) | 4.58 | CC(C)(C)OC(=O)N1CCC(SC(=S)NCCCCNC(=O)Nc2ccncc2)CC1 | 4.6 | 20.7 |
| 39.8 | ≥ 345 | 1.11 | CN1CCC(SC(=S)NCCCCNC(=O)Nc2cccnc2)CC1 | 4.7 | 16 |
| 50.1 | 114 (≈ 53.3 µg/mL) | 4.97 | CC(C)(C)OC(=O)N1CCC(SC(=S)NCCCCNC(=O)Nc2cccnc2)CC1 | 4.3 | 2.88 |
| 50.1 | 17 (≈ 8.68 µg/mL) | 6.04 | CC(C)(C)OC(=O)N1CCC(SC(=S)NCCCCNC(=O)Nc2ccc3c(c2)OCO3)CC1 | 4.4 | 55.6 |
| 50.1 | 369 (≈ 88.7 µg/mL) | – | O=C(NCCCCN=C=S)C1CCCCC1 | 4.4 | 1.13 |
| 31.6 | – | 5.45 | CC(C)(C)OC(=O)N1CCC(SC(=S)NCCCCNC(=O)Nc2ccc3ncsc3c2)CC1 | 4.7 | 18.3 |
| 5.01 | – | 3.77 | O=C(NCCCCN=C=S)Nc1ccc2scnc2c1 | 5.2 | 3.75 |
| 15.8 | – | 3.28 | CN1CCC(SC(=S)NCCCCNC(=O)CC2CCCCC2)CC1 | 5 | 11.5 |
| 31.6 | – | 5.79 | CC(C)(C)OC(=O)N1CCC(SC(=S)NCCCCNC(=O)Nc2ccc3c(c2)OCCO3)CC1 | 4.4 | 74.8 |
| 25.1 | ≥ 413 | – | O=C(CC1CCCCC1)NCCCCN=C=S | 4.8 | 11.5 |
| 5.01 | – | – | O=C(NCCCN=C=S)OCc1ccccc1 | 5 | 32.2 |
